Assay results as given in patent publication US12370143B2, “Compound or salt thereof and lipid particles” (FUJIFILM Corporation, priority 2018, dated 2025).

Tests used:
[1] = Particle size of lipid particles (no nucleic acid); type: physicochemical; settings: lipid particles without nucleic acid; compound/DSPC/cholesterol/DMG-PEG2000 molar ratio 50/10/38.5/1.5; ELS-Z2
Method: The compounds described in Examples 1, 9, and 10,1,2-distearoyl-sn-glycero-3-phosphocholine (trade name: COATSOME® MC-8080; NOF corporation), cholesterol (trade name: Cholesterol HP; NIPPON FINE CHEMICAL CO., LTD.), and 1,2-dimyristoyl-rac-glycero-3-(methylpolyoxyethylene 2000) (hereinafter, called DMG-PEG2000) (trade name: SUNBRIGHT® GM-020; NOF corporation) were dissolved in ethanol at a molar ratio of 50/10/38.5/1.5 such that the total lipid concentration became 20 mmol/L, thereby obtaining an oil phase.
A 10 mmol/L acetate buffer having a pH of 4 was used as a water phase and mixed with the oil phase by a micromixer (see JP5288254B) using a syringe pump such that the volume ratio of water phase:oil phase became 6.7:3.3. The mixed solution was diluted 2× with a phosphate buffered saline (PBS), thereby obtaining a dispersion liquid of lipid particles. The dispersion liquid was dialyzed using a dialysis cassette (Slide-A-Lyzer G2, MWCO: 10 kD, Thermo Fisher Scientific) including PBS such that ethanol was removed, thereby obtaining lipid particles containing the compounds described in Examples 1, 9, and 10.
By using the dispersion liquid of lipid particles as it was, the particle size of the lipid particles was measured using a zeta potential/particle size measurement system ELS-Z2 (Otsuka Electronics Co., Ltd.).

[2] = Particle size of nucleic acid lipid particles (Luc2-siRNA); type: physicochemical; settings: compound/DSPC/cholesterol/DMG-PEG2000 50/10/38.5/1.5
Procedure, shortened: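 Particle size was read by ELS-Z2 light scattering on nucleic acid lipid particles after dialysis against PBS. These were made by micromixing Luc2-siRNA (19.7 μmol/L, pH 4 acetate) with ethanolic lipids (test lipid/DSPC/cholesterol/DMG-PEG2000 50/10/38.5/1.5, 20 mmol/L) at 3:1 water:oil, siRNA/lipid 339 mol/mol.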

[3] = Encapsulation rate of siRNA in nucleic acid lipid particles (Luc2-siRNA); type: physicochemical; settings: compound/DSPC/cholesterol/DMG-PEG2000 50/10/38.5/1.5
Procedure, shortened: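 Encapsulation rate was calculated as (total − outer-phase siRNA)/total ×100. Total siRNA was quantified spectrophotometrically after lipid-dissolving ethanol precipitation, and unencapsulated siRNA by RiboGreen in TE (ex 485/em 535 nm). The particles were test lipid/DSPC/cholesterol/DMG-PEG2000 at 50/10/38.5/1.5, formed by microfluidic mixing with Luc2-siRNA at pH 4 and dialyzed against PBS.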

[4] = system: DMS273 cells constantly expressing Luc; assay: Target reporter protein (Luc) knockdown in cell, reporter protein assay; type: cell-based; settings: Homo sapiens, DMS-273; Luc2-siRNA lipid particles using the compound; siRNA 0.1 to 100 nmol/L; concentration at which Luc expression is knocked down to 50%; read-out: IC50
Procedure, shortened: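 Nucleic acid lipid particles added at final 0.1 to 100 nmol/L to DMS273 human SCLC cells stably expressing Luc2, 24 hr exposure then 24 hr further culture after medium change. Luc quantified by Steady Glo luminescence after viable cell count; knockdown efficiency calculated and IC50 taken as concentration giving 50% Luc reduction.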

| Particle size (nm) [1] [nm] | Particle size (nm) [2] [nm] | Nucleic acid encapsulation rate [3] [%] | IC50 [4] [nM] | Structure (SMILES) |
| --- | --- | --- | --- | --- |
| 111.2 | 159.9 | 80 |  | CCCCCCCCCCCCCCCCN(CCCCCCCCCCCCCCCC)C(=O)OCCN(C)CCN(C)C [Example 10, 2-((2-(Dimethylamino)ethyl)(methyl)amino)ethyl dihexadecylcarbamate] |
| 127.5 | 79.5 | 92 | 21 | CCCCC/C=C\C/C=C\CCCCCCCCN(CCCCCCCC/C=C\C/C=C\CCCCC)C(=O)OCCNCCN [Example 9, 2-((2-aminoethyl)amino)ethyl di((9Z,12Z)-octadeca-9,12-dien-1-yl)carbamate] |
| 145.9 | 66.4 | 84 | 13 | CCCCC/C=C\C/C=C\CCCCCCCCN(CCCCCCCC/C=C\C/C=C\CCCCC)C(=O)OCCN(C)CCN(C)C [Example 1, 2-((2-(dimethylamino)ethyl)(methyl)amino)ethyl di((9Z,12Z)-octadeca-9,12-dien-1-yl)carbamate] |
